Each structure is given as a SMILES string. In brackets after ≈: the same amount, converted by molar mass.

The values below come from PubChem BioAssay AID1996.

For the series the following is noted: buffer; pH 7.4; 200.0 µM.
Regarding `CC(C)OCCCNC(=O)Cc1ccc(F)cc1`, the solubility (kinetic) is more than 38 µg/mL. The result for `c1ccc(Nc2cccc3ccccc23)cc1` reads 1.5 µg/mL (≈ 6.84 µM); that for `COc1ccc(-c2cn3cccnc3n2)cc1`, more than 33.8 µg/mL.

The molecule `Cc1ccc(NC(=O)CCc2c(C)[nH]c(=O)c(C#N)c2C)cc1` came in with a kinetic solubility of 12.3 µg/mL (≈ 39.8 µM). For the molecule `CCC1C(C#N)=C(SCC(N)=O)NC2=C1C(=O)CC(C)(C)C2` (configuration not stated), the kinetic solubility was 46.9 µg/mL (≈ 147 µM). The molecule `COc1ccc(-c2nsc(SCC(=O)NCC3CCCO3)n2)cc1` (configuration not stated) gave a kinetic solubility of more than 54.8 µg/mL. The result for `CCOC(=O)c1ccc(NC(=S)N2CCN(CCO)CC2)cc1` reads more than 50.6 µg/mL; that for `O=C(O)c1cc(NC(=O)C2CCCO2)cc(C(=O)O)c1` (configuration not stated), more than 41.9 µg/mL. Turning to `Cc1c(C=O)c2ccccc2n1Cc1ccccc1F`, the solubility (kinetic) came out at 20.4 µg/mL (≈ 76.3 µM). In turn, `Cc1cnc(C(=O)NCc2ccc(Cl)cc2Cl)cn1` yielded a solubility (kinetic) of 7.7 µg/mL (≈ 26 µM). The value for `Cc1c(Cl)cccc1NC(=O)Cc1cccs1` was 11.1 µg/mL (≈ 41.8 µM).

Turning to `Cc1ccc(NC(=O)c2cccnc2C(=O)Nc2ccc(C)cc2)cc1`, the solubility (kinetic) was 1.9 µg/mL (≈ 5.5 µM). In the case of `CCOC(=O)c1c(/N=C/N(C)C)sc(C)c1C`, the kinetic solubility worked out at 37.3 µg/mL (≈ 147 µM). The result for `CC1(/[N+]([O-])=C/c2ccc(F)cc2)CCCCC1=O` (configuration not stated) reads 28.3 µg/mL (≈ 114 µM); that for `Cc1ccc(C2=NN(CC(=O)NCCN(C)C)C(=O)CC2)cc1`, more than 47.5 µg/mL; that for `CC1(C)CC(NC(=O)c2ccc(Cl)c(Cl)c2)CC(C)(C)N1`, more than 49.4 µg/mL.

`Cc1ccn2c(NC(=O)c3ccccc3)c(-c3ccccc3)nc2c1`: the solubility (kinetic) stood at 2 µg/mL (≈ 6.11 µM). Turning to `CN(CC(=O)Nc1ccc(C(N)=O)cc1)S(=O)(=O)c1ccc2c(c1)OCCO2`, the kinetic solubility is 9.4 µg/mL (≈ 23.2 µM). Consider `COc1cc(N/C(N)=N/c2nc(C)cc(C)n2)cc(OC)c1`, for which the kinetic solubility is more than 45.2 µg/mL. Molecule `COC(=O)[C@H](C)NC(=O)NCc1ccccc1` gave a kinetic solubility of more than 35.4 µg/mL. For `O=C1CN(C(=O)COC(=O)CCC(=O)c2ccc(Cl)cc2)c2ccccc2N1`, the kinetic solubility worked out at 57.2 µg/mL (≈ 143 µM). For the molecule `O=C(c1ccccc1Br)N1CCn2c1nc1ccccc12`, the solubility (kinetic) amounted to 26.7 µg/mL (≈ 78 µM). The molecule `CCOc1ccc(C2/C(=C(/O)c3ccc4c(c3)CC(C)O4)C(=O)C(=O)N2CC2CCCO2)cc1` (configuration not stated) showed a kinetic solubility of 61.8 µg/mL (≈ 133 µM). The molecule `COc1cccc(-n2cnc3sc(C)cc3c2=O)c1` registered a kinetic solubility of 40.3 µg/mL (≈ 148 µM). Take `Cc1cc(C(=O)Nc2nncs2)oc1C`: the solubility (kinetic) was more than 33.5 µg/mL. Turning to `Cc1ccc(C(=O)NC(=S)N(C)Cc2ccccc2)cc1`, the solubility (kinetic) turned out to be 2 µg/mL (≈ 6.7 µM).

In the case of `Cc1ccc(C)n1-c1ccccc1N1CCCCC1`, the solubility (kinetic) was found to be 6.4 µg/mL (≈ 25.2 µM). With `OCCN1CCN(CC(O)C(F)(F)F)CC1` (configuration not stated), the solubility (kinetic) is more than 36.3 µg/mL.

`O=C(Nc1scc(-c2ccccc2)c1C(=O)O)c1ccccc1F`: the solubility (kinetic) was more than 51.2 µg/mL.

Molecule `CC1CCc2c(sc3ncn(CCO)c(=O)c23)C1` (configuration not stated) displayed a solubility (kinetic) of more than 39.7 µg/mL. `COc1ccc(CCN)cc1OC` gave a kinetic solubility of 24.8 µg/mL (≈ 137 µM). With `CCOC(=O)c1c(Cc2ccccc2)c[nH]c1C`, the kinetic solubility worked out at 30.9 µg/mL (≈ 127 µM). In the case of `CN1C2CCC1CC(NC(=O)c1ccc([N+](=O)[O-])cc1)C2` (configuration not stated), the solubility (kinetic) is more than 43.4 µg/mL. Molecule `COC(=O)c1ccsc1NS(=O)(=O)c1ccccc1` registered a solubility (kinetic) of 44.1 µg/mL (≈ 148 µM). The molecule `O=C(Oc1ccc(C(=S)N2CCOCC2)cc1)c1cccc(Cl)c1` showed a kinetic solubility of less than 0.8 µg/mL. As for `Cc1ccc(N2C(=O)c3ccccc3C2C(=O)c2ccc(C)c(C)c2O)cc1` (configuration not stated), the solubility (kinetic) stood at 10.6 µg/mL (≈ 28.5 µM). For `COc1cc(Cl)c(C)cc1Nc1ncccn1`, the kinetic solubility worked out at 22.4 µg/mL (≈ 89.7 µM).

On to `O=C(Nc1ccc(-c2cnco2)cc1)c1ccc(F)cc1F`, for which the kinetic solubility is 0.8 µg/mL (≈ 2.66 µM).

Turning to `CCS(=O)(=O)N1CCc2nc(-c3ccccc3)sc2C1`, the kinetic solubility was more than 46.3 µg/mL.

In the case of `CCOP(=O)(OCC)C(Nc1ccccc1)c1ccco1` (configuration not stated), the solubility (kinetic) was more than 46.4 µg/mL. Molecule `CCOc1cc(/C=C\[N+](=O)[O-])ccc1OCC(=O)N1CCOCC1` yielded a solubility (kinetic) of 24.5 µg/mL (≈ 72.8 µM). In the case of `Cl.Fc1ccc(CNC2CN3CCC2CC3)cc1` (configuration not stated), the solubility (kinetic) was more than 46.1 µg/mL.
